Bridge positions count the residues as written; N and C are the ends. Square brackets hold non-standard residues; d marks the D form. Peptide text beside a SMILES is read from it. NMeF = CN[C@@H](Cc1ccccc1)C(=O)O; NMeNle = CCCC[C@H](NC)C(=O)O; NMeA = CN[C@@H](C)C(=O)O; Sar = CNCC(=O)O
Columns and labels:
PD-L1 [1] = assay: differential scanning fluorimetry; type: binding; conditions: DSF; for melting temperature of PD-L1 (Tm): PD-L1 alone Tm 37.6°C; for stabilization of PD-L1 against thermal induced unfolding: relative to PD-L1 alone (Tm 37.6°C)
PD-L1 [2] = assay: X-ray crystallography of PD-L1/peptide complexes; type: binding; conditions: crystal structures of PD-L1/peptide-71 (2.5 Å) and PD-L1/peptide-57 (below 1 Å)

SMILES | melting temperature of PD-L1 (Tm) (PD-L1 [1]) | stabilization of PD-L1 against thermal induced unfolding (PD-L1 [1]) | binding site on PD-L1 (PD-L1 [2])
CCCC[C@H]1C(=O)N(C)[C@@H](CCCC)C(=O)N[C@@H](CCCNC(=N)N)C(=O)N[C@H](C(=O)NCC(N)=O)CSCC(=O)N[C@@H](Cc2ccccc2)C(=O)N(C)[C@@H](C)C(=O)N[C@@H](CC(N)=O)C(=O)N2CCC[C@H]2C(=O)N[C@@H](Cc2c[nH]cn2)C(=O)N[C@@H](CC(C)C)C(=O)N(C)CC(=O)N[C@@H](Cc2c[nH]c3ccccc23)C(=O)N[C@@H](CO)C(=O)N[C@@H](Cc2c[nH]c3ccccc23)C(=O)N1C [peptide-57] ({CH2CO}-F[NMeA]NPHL[Sar]WSW[NMeNle][NMeNle]RCG-NH2; thioether N-14; N-terminus and C-terminus assumed) | 51.6 °C | 14 °C | bind to PD-L1 partially at the site of the PD-1 interaction
CCCC[C@H]1C(=O)N(C)CC(=O)N[C@@H](CC(=O)O)C(=O)N[C@@H](C(C)C)C(=O)N(C)[C@@H](Cc2ccccc2)C(=O)N[C@@H](Cc2ccc(O)cc2)C(=O)N(C)CC(=O)N[C@@H](Cc2c[nH]c3ccccc23)C(=O)N[C@@H](Cc2ccc(O)cc2)C(=O)N[C@@H](CC(C)C)C(=O)N[C@H](C(=O)NCC(N)=O)CSCC(=O)N[C@@H](Cc2ccccc2)C(=O)N(C)[C@@H](Cc2ccccc2)C(=O)N1C [peptide-71] ({CH2CO}-F[NMeF][NMeNle][Sar]DV[NMeF]Y[Sar]WYLCG-NH2; thioether N-13; N-terminus and C-terminus assumed) | 56.6 °C | 19 °C | bind to PD-L1 partially at the site of the PD-1 interaction
